Patent US20130067618A1, “METHODS AND COMPOSITIONS FOR WEED CONTROL” (priority 2011, published 2013)

Legend:
[1] = tested on: Amaranthus palmeri plants (glyphosate-resistant Palmer amaranth, "R-22"); test: Topical ssDNA ALS2 promoter oligonucleotide pool followed by Staple herbicide; plant height; type: in vivo; conditions: testing repeated with individual oligonucleotides
Procedure: In this example, growing Amaranthus palmeri plants were treated with a topically applied composition for inducing modulation of a target gene in a plant including (a) an agent for conditioning of a plant to transfer of the polynucleotides and (b) polynucleotides including at least one ssDNA polynucleotide strand including at least one segment of 18-21 contiguous nucleotides of the target gene in sense (S) orientation. […]
Approximately four-week old greenhouse grown Amaranthus palmeri plants (glyphosate-resistant Palmer amaranth, “R-22”) were used in this assays. […] The ssDNA ALS2 oligonucleotide composition was applied and followed 24 hours later by the herbicide treatment, Staple® (2-Chloro-6-{(4,6-dimethoxy-2-pyrimidinyl)thio}benzoic acid sodium salt, pyrithiobac sodium 85 percent, Dupont, Wilmington, Del.) at ¼×(27 g ai/ha (grams active ingredient per hectare) rate for the ssDNA ALS2 oligonucleotide treated plants and 1× rate (108 g ai/ha) for the untreated plants, five replications per treatment and the data is presented as percentage height of the untreated control. Plant height is determined at seven days after herbicide treatment.

[2] = tested on: ALS inhibitor resistant Palmer amaranth plants (A3, ALS inhibitor herbicide biotype); test: ALS_pro_S1 trigger followed by Staple or Classic herbicide on ALS inhibitor resistant plants; type: in vivo, Amaranthus palmeri; conditions: dsDNA trigger, FIG. 2
Procedure: Thus, ssDNA ALS2 oligonucleotide treatment followed by Staple® at 1 h and 24 h caused 50 percent and 60 percent growth reduction, relative to the untreated control, while Staple® alone at 27 (1 h and 24 h) and 108 (24 h) g ai/ha caused 35 percent, 30 percent, and 40 percent growth reduction, respectively. […] ALS_pro 51 dsDNA trigger molecule was applied to ALS inhibitor resistant Palmer amaranth plants (A3, ALS inhibitor herbicide biotype) followed by ALS inhibitor herbicides 1× Staple® at 108 g ai/ha or 2× Classic® (Chlorimuron Ethyl 25DF, Dupont, Willmington, Del., 2× rate is 70 g ai/ha) at +COC (crop oil concentrate) 24 hr after trigger application.

[3] = tested on: Amaranthus palmeri plants (Palmer amaranth A3); test: Tiling test of pooled trigger molecules to ALS large subunit gene, followed by Staple; visual injury; type: in vivo
Procedure: Approximately four-week old (3-4 inches tall) greenhouse grown Amaranthus palmeri plants (Palmer amaranth A3) were used in these assays. The plants were spray treated in a greenhouse with the ALStile composition, each composition having six trigger oligonucleotides (Table 3) and a formulation comprising 1 percent Silwet L-77 solution, 2 percent ammonium sulfate and 20 mM sodium phosphate and the concentration of each oligonucleotide was approximately 4 nmol. Spray solutions were prepared the same day as spraying and applied using a track sprayer with a FLATfan nozzle 9501E at 165 psi (pounds/square inch) at a rate of 93 g/ha (grams/hectare). The dsDNA ALStile pool oligonucleotide composition was applied and followed 24 hours later by the herbicide treatment, Staple® (2-Chloro-6-{(4,6-dimethoxy-2-pyrimidinyl)thio}benzoic acid sodium salt, pyrithiobac sodium 85 percent, Dupont, Wilmington, Del.) at 108 g/ha (grams per hectare), five replications per treatment and the data is presented as a visual score of percentage injury determined fourteen days after herbicide application.

[4] = trigger pool (about 4 nmol each) or formulation, Staple @ 108 g/ha 24 h later, 14 days after herbicide, A3

Substance: ALSpro_S1: trigger TCTTCTCCGACTCTCACAA, SEQ ID NO:4202; ssDNA in Table 2, dsDNA in b81, dsRNA in Table 3 (chemistry not fully specified; listed as Amaranthus palmeri)
- ALS inhibitor herbicide enhancing activity of the individual trigger molecule [1]: effective trigger molecule
- improvement of herbicide activity on ALS inhibitor resistant plants ([2]; then 1x Staple at 108 g ai/ha 24 hr after trigger): substantially improved the activity
- improvement of herbicide activity on ALS inhibitor resistant plants ([2]; then 2x Classic (70 g ai/ha) + COC 24 hr after trigger): substantially improved the activity
- herbicide enhancing activity relative to the formulation control ([3]; A3 biotype, Staple @ 108 g/ha): herbicide enhancing activity
- visual score of percentage injury, avg ([3]; average of five replications, trigger pool or formulation, Staple @ 108 g/ha 24 h later, 14 days after herbicide, A3): 100%
- visual score of percentage injury, Rep1 [3, 4]: 100%
- visual score of percentage injury, Rep2 [3, 4]: 100%
- visual score of percentage injury, Rep3 [3, 4]: 100%
- visual score of percentage injury, Rep4 [3, 4]: 100%
- visual score of percentage injury, Rep5 [3, 4]: 100%
